Results reported in PubChem BioAssay AID743417 (Broad Institute, 2014).
Records with an inconclusive call do not appear. Active and inactive are the calls of the source.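 Rule for the calls: active = compounds lowering the luciferase signal with a fitted half-maximal dose at most twice their top valid dose (cut at about 30 µM in these data); inconclusive = flat fits with moderate signal loss, or poor fits; inactive = the rest.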

Test system: Clone20 osteoblast Shn3 3'UTR firefly luciferase, 24 h
Assay: Shn3 3'UTR reporter inhibitors, dose response, cell-based, Clone20 osteoblasts, luminescence, dry powder, set 2 (AID 743417)

| Structure (SMILES) | AC50 |
| --- | --- |
| C=CCC[C@H](Cc1ccc(F)cc1)C(=O)OC[C@@H](Cc1c[nH]c2ccccc12)NC(=O)[C@H](CC=C)CC(=O)N(CCO)Cc1ccccc1 | 8660 nM |
| Cc1ccc(C)c(S(=O)(=O)Nc2ccc(-n3cnnn3)cc2)c1 | > 70000 nM (inactive) |
| Cc1cccc(Cn2c(NCCO)nc3c2c(=O)n(C)c(=O)n3C)c1 | 528 nM |
| CCOC(=O)c1c(NC(=O)COc2cccc3c2CCN(C)C3=O)sc2c1CCC2 | 5440 nM |
| C=CCNc1nc2c(c(=O)n(C)c(=O)n2C)n1CCCCCC | 761 nM |
| CCCC(=O)NC(c1ccc(Cl)cc1Cl)c1ccc2cccnc2c1O (stereo not drawn) | 638 nM |
| COc1ccc(/C=C/C(=O)NC(=S)NNC(=O)c2cnccn2)cc1 | 15500 nM |
| CS(=O)(=O)N1CCN(c2ccc(NC(=O)c3ccc([N+](=O)[O-])o3)cc2)CC1 | 5650 nM |
| CCOc1cc(C(=O)CSc2nnc(CNc3ccc(Cl)cc3)o2)ccc1NC(=O)CC | 7730 nM |
| CC(C)n1c(/C=C/[C@@H](O)C[C@@H](O)CC(=O)O)c(-c2ccc(F)cc2)c2ccccc21 | 2400 nM |
| Oc1ccc(CN2CCc3ccccc3C2)c2cccnc12 | 673 nM |
| CCOC(=O)c1cnc(-n2nc(C)cc2C)nc1NCc1ccc2c(c1)OCO2 | 8740 nM |
| CC(OC(=O)c1ccc(S(C)(=O)=O)c([N+](=O)[O-])c1)C(=O)NC1C2CC3CC(C2)CC1C3 (stereo not drawn) | 1400 nM |
| CCOC(=O)c1c(CSCc2ccccc2)oc2ccc(O)c(CN(C)C)c12 | 9790 nM |
| Oc1ccccc1Nc1nc(NCc2ccccc2)c2ccccc2n1 | 10600 nM |
| CC(=O)N1c2ccc(S(=O)(=O)N3CCC(C(=O)N4CCN(c5cc(Cl)ccc5C)CC4)CC3)cc2CC1C (stereo not drawn) | 3100 nM |
| C=C1C(=O)[C@@]23[C@H](O)C[C@@H]4C(C)(C)CC[C@H](O)[C@@]4(C)[C@@H]2CC[C@@H]1[C@H]3O | 1290 nM |
| Cc1ccc2[nH]c3c(N4CCc5ccccc5C4)ncnc3c2c1 | 1180 nM |
| CCOC(=O)c1c(C)[nH]c2c1-c1ccccc1C(=O)C2=O | 496 nM |
| Cc1[nH]nc2c1-c1nc3ccccc3nc1C(C)(C)C2 | 4200 nM |
| COc1ccc(NS(=O)(=O)c2cccc(NC(=O)c3ccc(S(=O)(=O)N4CCCCCC4)cc3)c2)cc1 | 829 nM |
| Cc1cc(C)n(-c2ccc3cccc(NS(C)(=O)=O)c3n2)n1 | 1320 nM |
| Oc1cc(Nc2cccnc2)cc2cccnc12 | 2120 nM |
| CCOC(=O)/C(=C\c1ccc([N+](=O)[O-])cc1)C(=O)c1cc(C(C)=O)c(Nc2ccccc2)s1 | 2470 nM |
| COc1ccccc1-c1cc(C(F)(F)F)nc(S(=O)(=O)CCCC(=O)NCc2ccc(F)cc2)n1 | 4430 nM |

| Structure (SMILES) | AC50 |
| --- | --- |
| O=c1c2ccccc2nc2n1C(CSCc1cccc(C(F)(F)F)c1)CS2 (stereo not drawn) | 1680 nM |
| Cc1cccc(NC(=O)/C=C/c2ccc([N+](=O)[O-])s2)c1 | 3290 nM |
| c1ccc(CNc2c(-c3cccc(SC4CCCCC4)c3)nc3ccccn23)cc1 | 3460 nM |
| CC(C)C1C(=O)N(Cc2cn(CCC3OCCO3)nn2)CCS(=O)(=O)N1Cc1ccc(-c2ccc(Cl)cc2)cc1 (stereo not drawn) | 2130 nM |
| CC[C@@H](C)[C@H](CNC)NC[C@@H](Cc1cccc2ccccc12)NCCc1cccc(C(F)(F)F)c1 | 8080 nM |
| CCCc1nc2c(=O)n(C)c(=O)nc-2n(C)n1 | 2170 nM |
| CC(Nc1ncnc2sccc12)c1ccccc1 (stereo not drawn) | 505 nM |
| CC(C)CCC(C(=O)O)C(C)CC(=O)NNC(=O)c1ccco1 (stereo not drawn) | > 70000 nM (inactive) |
| COc1ccc(CNc2ncnc3sccc23)cc1 | 1660 nM |
| CC(NNC(=S)N1CCN(c2ccccn2)CC1)c1nccc2ccccc12 (stereo not drawn) | < 260 nM |
| CCOC(=O)c1sc(NC(=O)CCCn2nc([N+](=O)[O-])c(Cl)c2C)c(C(=O)OCC)c1C | 6340 nM |
| CN(CC(=O)Nc1ccccc1Cl)C(=O)c1cccc(S(=O)(=O)N2CCN(Cc3ccccc3)CC2)c1 | 3470 nM |
| O=C1C(F)=CC(COC(c2ccccc2)(c2ccccc2)c2ccccc2)OC1n1cc(F)c(=O)[nH]c1=O (stereo not drawn) | 428 nM |
| O=C(Nc1nc(-c2ccccn2)cs1)c1ccccc1-n1cnnn1 | 1710 nM |
| Cc1ccc(CS(=O)(=O)c2ncc(Cl)c(C(=O)Nc3nnc(C(C)C)s3)n2)cc1 | 1520 nM |
| COc1ccc(C(NC(C)=O)c2ccc3cccnc3c2O)c(OC)c1 (stereo not drawn) | 1740 nM |
| CC(=O)NC(c1ccc(Cl)cc1)c1ccc2cccnc2c1O (stereo not drawn) | 299 nM |
| O=C1C=C(c2ccnc3cc(Cl)ccc23)C[C@@H](c2ccc3c(c2)OCO3)C1 | 1360 nM |
| CCN(C(=O)c1ccc(C(C)(C)C)cc1)c1nnc(Cn2nnc3ccccc32)s1 | 1350 nM |
| O=C(c1cc2sccc2n1Cc1ccc(F)cc1)N1CCN(c2nc3ccccc3s2)CC1 | 1360 nM |
| COc1ccc(NC(=O)Cn2nnc(-c3ccccc3NS(=O)(=O)c3ccccc3)n2)cc1 | 485 nM |
| Cc1ccc(NC(=O)c2cc(S(=O)(=O)NCCC3=CCCCC3)ccc2F)cc1F | 4130 nM |
| CN(Cc1nccn1C)C(=O)c1cc(COc2ccc3ncccc3c2)on1 | 6970 nM |
| O=c1c2ccccc2nc(/C=C/c2ccc([N+](=O)[O-])o2)n1-c1ccc(O)cc1 | 3240 nM |
| C#CC(=O)N(c1cccc(OC)c1)C(C(=O)NC1CCCC1)c1cccs1 (stereo not drawn) | 3800 nM |

| Structure (SMILES) | AC50 |
| --- | --- |
| CNC(=O)c1nnsc1S(=O)c1ccc(Cl)cc1 (stereo not drawn) | 2020 nM |
| CC1(Cc2ccc(OC(F)(F)F)cc2)C(=O)Nc2c(Cl)ccc(Cl)c21 (stereo not drawn) | 25700 nM |
| COc1ccc(NC(=O)/C(Cl)=C(/Cl)S(=O)Cc2ccccc2)cn1 (stereo not drawn) | < 260 nM |
| CCCCN1C2=NCCCN2c2cc(C)c(C)cc21 | 803 nM |
| C=C1C(=O)OC2CC3(C)OC3C3OC3C3=CC(OC3=O)C12 (stereo not drawn) | 1450 nM |
| Cc1ccccc1C(=O)N1CCN(c2ccc(NC(=O)c3ccc([N+](=O)[O-])o3)cc2)CC1 | 864 nM |
| O=C(Nc1nc2cc3c(cc2s1)OCCO3)C1=COCCO1 | 2170 nM |
| COc1ccc(C(NC(=O)C(C)C)c2ccc3cccnc3c2O)cc1 (stereo not drawn) | 1350 nM |
| Cc1ccccc1OCC(O)CNC1CCC(NCC(O)COc2ccccc2C)CC1 (stereo not drawn) | 4500 nM |
| Cc1ccc([C@@H]2CC(=O)[C@@H]3CN(S(=O)(=O)c4ccccc4C)[C@H](c4ccc(Cl)cc4)C[C@@H]3N2S(=O)(=O)c2ccc(C)cc2)cc1 | 361 nM |
| COc1ccc(OC)c(NC(=O)c2nc(S(=O)(=O)Cc3ccccc3)ncc2Cl)c1 | 2080 nM |
| COc1ccc(CNCCC(c2ccc(OC(C)C)cc2)c2ccccc2OC)cc1OC (stereo not drawn) | 4350 nM |
| CCN(CC)C(=O)[C@H]1C[C@H](CC(=O)NC/C=C(\C)CCC=C(C)C)C(=O)N2CCc3c([nH]c4cc(CCC(=O)N(C)C)ccc34)[C@]12C | 1370 nM |
| CCC(=O)N1CCN(c2ccc(NC(=O)c3ccc([N+](=O)[O-])o3)cc2Cl)CC1 | 850 nM |
| C=C[C@]1(C)C=C2C(=O)[C@@]3(O)OC(=O)[C@@]4(CCCC(C)(C)[C@H]34)[C@@]2(O)CC1 | 4980 nM |
| Cc1ccc(-c2nc3ncccc3o2)cc1NC(=O)c1sc2ccccc2c1Cl | 5870 nM |
| CCOC(=O)N1CCN(C(=O)c2ccc(Cn3c(=S)[nH]c4ccc(Br)cc4c3=O)cc2)CC1 | 1250 nM |
| C[C@H](NC(=O)c1ncn2c1c(=O)[nH]c1ccc(Br)cc12)c1ccccc1 | 8760 nM |
| COc1ccc(OC)c(/C=C/C(=O)N2C(=O)c3cccc(N)c3C2=O)c1 | 3250 nM |
| Cc1ccc(Cl)cc1N1CCN(C(=O)C2CCC(=O)N(C3CCCCCC3)C2)CC1 (stereo not drawn) | 3140 nM |
| COc1ccccc1CNc1nc(NCc2ccc(C(C)C)cc2)c2sccc2n1 | 6810 nM |
| COc1ccc(C2/C=C\CN(C(=O)c3ccc(C)cc3)[C@H](Cc3ccccc3)C(=O)N2Cc2ccc(F)cc2)cc1 (stereo partly drawn) | 772 nM |
| CC(=O)Nc1ccc(Sc2ccc([N+](=O)[O-])o2)cc1 | 2150 nM |
